Legend:
[1] = test system: HCT116p53−/−; assay: MTS antiproliferative assay HCT116p53-/-; format: cell-based; conditions: Homo sapiens; 72 h of incubation
Description: (§1) The cell lines used were acquired from the American Type Culture Collection (ATCC), CCRF-CEM (T lymphoblastic leukemia), K562 ([…]), U2OS (osteosarcoma), HCT116 (colon carcinoma), A549 (lung adenocarcinoma) and HCT116p53−/− (HCT116 cell line mutated in p53) Horizon Discovery Ltd., (Waterbeach, Cambridge, United Kingdom).
(§2) In our laboratory, IMTM, we generated the daunorubicin-resistant subline of CCRF-CEM cells (CEM-DNR bulk) and paclitaxel-resistant subline K562-TAX, as described previously. […] Both ABC transporters are involved in drug resistance. As a control, human fibroblasts MRC-5 and BJ cell lines were used. […] Adherent cells were passaged using PBS containing 0.25% trypsin plus 0.01% EDTA (ethylenediamine tetraacetic acid) every 2–3 days.
(§3) The antiproliferative activity of compounds was determined using a standard 3-(4,5-dimethylthiazol-2yl)-5-(3-carboxymethoxyphenyl)-2-(4-sulfophenyl)-2H-tetrazolium (MTS) reduction assay on a robotic high throughput screening platform (HighResBio, Boston, MA, USA) following treatment of cells for 3–7 days. The IC50 values were calculated from the appropriate dose–response curves with Dotmatics software (San Diego, CA, USA).

[2] = test system: epimastigotes of Trypanosoma cruzi strain MHOM/VE/92/YBM; assay: MTT viability of T. cruzi epimastigotes; format: cell-based; conditions: Trypanosoma cruzi, 72 h, epimastigotes
[3] = test system: K562-TAX; assay: MTS antiproliferative assay K562-TAX; format: cell-based, human; conditions: 72 h of incubation, paclitaxel-resistant
Description: as §1, §2, §3

[4] = test system: HCT-116; assay: MTS antiproliferative assay HCT116; format: cell-based; conditions: Homo sapiens, 72 h of incubation
Description: as §1, §2, §3

[5] = test system: BJ; assay: MTS assay on non-malignant BJ; format: cell-based; conditions: noncancerous human cell line
Procedure: as §2, §3

[6] = test system: CCRF-CEM; assay: MTS antiproliferative assay CCRF-CEM; format: cell-based; conditions: Homo sapiens, 72 h of incubation
Description: as §1, §2, §3

[7] = test system: A549; assay: MTS antiproliferative assay A549; format: cell-based, human; conditions: 72 h of incubation
Description: as §1, §2, §3

[8] = test system: MRC-5; assay: MTS assay on non-malignant MRC-5; format: cell-based; conditions: MRC5; noncancerous human cell line
Procedure: as §2, §3

[9] = test system: promastigotes of Leishmania (V.) braziliensis strain MHOM/CO/87/UA301; assay: MTT viability of L. braziliensis promastigotes; format: cell-based;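 further: promastigote proliferation in 96-well plates, MTT reduction read at 570 nm, EC50 derived from growth curves, cytotoxicity CC50 likewise by MTT in BMDM and VERO cells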
Procedure: Promastigotes of Leishmania (V.) braziliensis strain MHOM/CO/87/UA301 were isolated from footpad lesions in Balb/C mice previously infected. In the process of maintenance and differentiation of the parasites, the LTI medium (tryptose 15 g/L, yeast extract 5 g/L, liver extract 2 g/L, hemin-NaOH 0.02 g/L, glucose 4 g/L, NaCl 9 g/L, KCl 0.4 g/L Na2HPO4, 7.5 g/L at pH 7.4) supplemented with 10% fetal calf serum and maintained at 29 °C was used.
Briefly, 96-well plates were used, where 2 × 10^6 parasites/mL were seeded. A concentration of 50 μM was used for each compound and an incubation time of 96 h at 29 °C. 3-(4,5-dimethylthiazol-2-yl)-2,5-diphenyl tetrazolium bromide (MTT) 1 μg/mL was added and incubated in darkness for 4 h, acidic isopropanol (4N) was added and the plate was read at 570 nm in a spectrophotometer Synergy HT (Biotek). Miltefosine was used as a reference drug. The EC50 calculation of the selected compound was performed using growth curves. Direct counting was used to monitor the proliferation of parasites, three independent experiments were performed for each concentration of the compounds evaluated. The in vitro evaluations of compounds toxicity by MTT in VERO and BMDM cells follow a methodology described above with some modifications [60].

[10] = test system: K562; assay: MTS antiproliferative assay K562; format: cell-based, human; conditions: for IC50: 72 h of incubation; for times higher cytotoxicity against K562 than K562-TAX: ratio of IC50 values
Description: as §1, §2, §3

[11] = test system: U2OS; assay: MTS antiproliferative assay U2OS; format: cell-based; conditions: Homo sapiens, 72 h of incubation
Description: as §1, §2, §3

[12] = test system: CEM-DNR; assay: MTS antiproliferative assay CEM-DNR; format: cell-based; conditions: Homo sapiens, 72 h of incubation, daunorubicin-resistant
Description: as §1, §2, §3

[13] = test system: A549 cell line; assay: Annexin V-FITC/PI flow cytometry apoptosis assay A549; format: cell-based, human; conditions: 24 h
Procedure: (§4) Cell death was assessed after 24 h incubation with compounds 18 and 22. Apoptosis was analyzed by flow cytometry using annexin V-FITC and propidium iodide (PI). Early apoptosis was defined by annexin V-FITC expression and, necrosis by PI expression, late apoptosis by coexpression of annexin V/PI. Doxorubicin and quercetin were used as positive controls. The results of a typical flow cytometry analysis of both compounds are illustrated in Figure 2 and Figure 3. An increase in early apoptosis and late apoptosis was observed; necrosis was less predominant. The results are summarized in Tables S1 and S2 (Supplementary Materials). The expression of annexin V was different depending on the compound used. K562, A549 cell lines were treated as described by the manufacturer (Santa Cruz Biotechnology), washed, and resuspended in annexin V binding buffer (0.01 M HEPES, 0.14 M NaCl, and 2.5 mM CaCl2) with the subsequent incubation of annexinV-FITC and then PI. An Epics XL cytometer (Beckman Coulter, Indianapolis, IN, USA) was used for the analysis. Untreated cells were the negative controls, and doxorubicin (Dox) (1 μM), and quercetin (QC) (50 μM) were the positive controls. Early apoptosis refers to annexin V expression, late apoptosis, the coexpression of annexin V and PI, and necrosis the sole expression of PI. […] The experiments were performed as described before. To avoid the unwanted effects of DMSO, the concentrations of the compounds were never higher than 100 μM.

[14] = test system: K562 cell line; assay: Annexin V-FITC/PI flow cytometry apoptosis assay K562; format: cell-based, human; conditions: 24 h
Procedure: as §4

Row | SMILES | IC50 [1] | EC50 [2] | IC50 ([3]; Homo sapiens, K562-Tax, 72 h) | IC50 [4] | IC50 [5] | IC50 [6] | IC50 ([7]; Homo sapiens, A549, 72 h) | IC50 [8] | EC50 ([9]; 72 h, promastigotes) | IC50 ([10]; Homo sapiens, K562, 72 h) | IC50 [11] | melting point | IC50 [12] | also measured
1 | COc1ccc2c(c1)CC/C(=C\c1cccnc1Oc1ccc(F)cc1)C2=O [Compound 14, (E)-2-{[2-(4-Fluorophenoxy)pyridin-3-yl]methylene}-3,4-dihydro-6-methoxynaphthalen-1(2H)-one] | > 50 µM | > 100 µM | > 39.2 µM | > 50 µM | > 50 µM | 20.1 ± 2.43 µM | 43.6 ± 4.12 µM | > 50 µM | > 100 µM | 5.74 ± 3.2 µM | > 50 µM | 152 to 154 °C | 41.3 ± 5.67 µM | IC50 [3]: 39.2 ± 9.37 µM; times higher cytotoxicity against K562 than K562-TAX [10]: 6.8 times
2 | COc1ccc2c(c1)C(=O)/C(=C/c1cccnc1Oc1ccc(F)cc1)CC2 [Compound 15, (E)-2-{[2-(4-Fluorophenoxy)pyridin-3-yl]methylene}-3,4-dihydro-7-methoxynaphthalen-1(2H)-one] | 23.9 ± 2.5 µM | > 100 µM | 19.7 ± 3.78 µM | 30.5 ± 2.34 µM | > 50 µM | 9.13 ± 1.38 µM | 29.1 ± 5 µM | > 50 µM | > 100 µM | 27.7 ± 2.49 µM | 26.3 ± 4.61 µM | 150 to 152 °C | 23.1 ± 4.38 µM | –
3 | O=c1c(O)c(-c2ccc(O)c(O)c2)oc2cc(O)cc(O)c12 [QC, quercetin, reference compound] | – | – | – | – | – | – | – | – | – | – | – | – | – | AV+/IP+ (late apoptosis) ([13]; A549, 50 µM): 21.70%; AV+/IP- (early apoptosis) ([13]; A549, 50 µM): 26.10%; AV-/IP+ (necrosis) ([13]; A549, 50 µM): 5.60%; AV+/IP+ (late apoptosis) ([14]; K562, 50 µM): 6.25%; AV+/IP- (early apoptosis) ([14]; K562, 50 µM): 34.30%; AV-/IP+ (necrosis) ([14]; K562, 50 µM): 1.57%
4 | COc1ccc2c(c1)C(=O)/C(=C/c1cccnc1Oc1ccc(Br)cc1)CC2 [Compound 19, (E)-2-{[2-(4-Bromophenoxy)pyridin-3-yl]methylene}-3,4-dihydro-7-methoxynaphthalen-1(2H)-one] | > 50 µM | > 100 µM | 4.17 ± 2.93 µM | > 50 µM | > 50 µM | 12.9 ± 2.43 µM | > 50 µM | > 50 µM | ≤ 60 µM | 43 ± 5.1 µM | > 50 µM | 144 to 146 °C | 20 ± 3.99 µM | EC50 ([9]; promastigotes, 72 h): 44.6 ± 1.15 µM
5 | COc1ccc2c(c1)CC/C(=C\c1cccnc1Oc1ccc(Br)cc1)C2=O [Compound 18, (E)-2-{[2-(4-Bromophenoxy)pyridin-3-yl]methylene}-3,4-dihydro-6-methoxynaphthalen-1(2H)-one] | > 50 µM | > 100 µM | 17.6 ± 7.09 µM | > 50 µM | > 50 µM | 5.97 ± 0.67 µM | 9.64 to 9.74 µM | > 50 µM | > 100 µM | 3.91 to 4.33 µM | 7.27 ± 0.68 µM | – | 25.7 ± 5.71 µM | IC50 [7]: 9.64 ± 1.71 µM; AV+/IP+ (late apoptosis) ([13]; A549, 10 µM): 3.28%; AV+/IP- (early apoptosis) ([13]; A549, 10 µM): 11.10%; AV-/IP+ (necrosis) ([13]; A549, 10 µM): 3.06%; AV+/IP+ (late apoptosis) ([13]; A549, 25 µM): 21.10%; AV+/IP- (early apoptosis) ([13]; A549, 25 µM): 40.10%; AV-/IP+ (necrosis) ([13]; A549, 25 µM): 3.12%; AV+/IP+ (late apoptosis) ([14]; K562, 5 µM): 2.84%; AV+/IP- (early apoptosis) ([14]; K562, 5 µM): 22.70%; AV-/IP+ (necrosis) ([14]; K562, 5 µM): 0.89%; AV+/IP+ (late apoptosis) ([14]; K562, 10 µM): 89.50%; AV+/IP- (early apoptosis) ([14]; K562, 10 µM): 8.69%; AV-/IP+ (necrosis) ([14]; K562, 10 µM): 1.12%; annexin V-FITC expression ([14]; K562, 10 µM): higher than 50%; IC50 [10]: 4.33 ± 0.19 µM; times higher cytotoxicity against K562 than K562-TAX [10]: 4.1 times
6 | COc1cccc2c1CC/C(=C\c1cccnc1Oc1ccc(Br)cc1)C2=O [Compound 17, (E)-2-{[2-(4-Bromophenoxy)pyridin-3-yl]methylene}-3,4-dihydro-5-methoxynaphthalen-1(2H)-one] | > 50 µM | > 100 µM | 31.4 ± 6.59 µM | > 50 µM | > 50 µM | 12.9 ± 2.07 µM | > 50 µM | > 50 µM | > 100 µM | 32 ± 3.72 µM | > 50 µM | 158 to 160 °C | 31.7 ± 5.86 µM | –
7 | O=C1/C(=C/c2cccnc2Oc2ccc(Br)cc2)CCc2ccccc21 [Compound 16, (E)-2-{[2-(4-Bromophenoxy)pyridin-3-yl]methylene}-3,4-dihydronaphthalen-1(2H)-one] | 31.5 ± 62.7 µM | > 100 µM | 25.6 ± 5.37 µM | 29.9 ± 4.59 µM | > 50 µM | 8.7 ± 2.19 µM | 39.7 ± 1.89 µM | > 50 µM | > 100 µM | 23.9 ± 2.28 µM | 38 ± 4.47 µM | 138 to 140 °C | 34.3 ± 3.61 µM | –
8 | O=C1/C(=C/c2cccnc2Oc2ccc(F)cc2)CCc2ccccc21 [Compound 12, (E)-2-{[2-(4-Fluorophenoxy)pyridin-3-yl]methylene}-3,4-dihydronaphthalen-1(2H)-one] | 26.9 ± 3.49 µM | > 100 µM | 32.9 ± 3.19 µM | 26.4 ± 1.58 µM | > 50 µM | 6.7 ± 0.98 µM | 28.1 ± 4.86 µM | > 50 µM | > 100 µM | 22.4 ± 2.3 µM | 23.2 ± 1.9 µM | – | 35.6 ± 4.42 µM | –
9 | COc1cccc2c1C(=O)c1c(O)c3c(c(O)c1C2=O)C[C@@](O)(C(=O)CO)C[C@@H]3O[C@H]1C[C@H](N)[C@H](O)[C@H](C)O1 [Dox, doxorubicin, reference compound] | – | – | – | – | – | – | – | – | – | – | – | – | – | AV+/IP+ (late apoptosis) ([13]; A549, 1 µM): 33.50%; AV+/IP- (early apoptosis) ([13]; A549, 1 µM): 8.33%; AV-/IP+ (necrosis) ([13]; A549, 1 µM): 29.30%; AV+/IP+ (late apoptosis) ([14]; K562, 1 µM): 29.80%; AV+/IP- (early apoptosis) ([14]; K562, 1 µM): 29.40%; AV-/IP+ (necrosis) ([14]; K562, 1 µM): 19.20%

From paper PMC9457600, “Synthesis, Leishmanicidal, Trypanocidal, Antiproliferative Assay and Apoptotic Induction of (2-Phenoxypyridin-3-yl)naphthalene-1(2H)-one Derivatives” (Molecules, 2022)
